The values below are quoted from earlier work in patent US20220023314A1, “STABLE FORMULATIONS OF ANESTHETICS AND […] FORMS” (HALO SCIENCE LLC, priority 2018, published 2022).

The conditions of this data set: in vivo.

With `C[C@]12CC[C@@H](O)C[C@@H]1CC[C@H]1[C@@H]3CC[C@H](C(=O)CO)[C@@]3(C)CC(=O)[C@@H]12` [Alphadolone], the “potency relative to alphaxalone” value is on record as “half as potent”.
